Here are results for 2 compounds from patent US10900014B2, “Long-term storage medium for culturing obligate anaerobic bacteria or microaerobic bacteria under aerobic environment, and method of detecting obligate anaerobic bacteria or microaerobic bacteria using said medium” (Kanto Kagaku Kabushiki Kaisha, priority 2015, dated 2021).

For this assay, the system named is C. difficile. The format is cell-based. Conditions: 37° C. 24 h; for concentration added at which a mass of bacteria and the surrounding medium exhibited yellow color / concentration added at which a mass of bacteria exhibited yellow color / concentration added at which a mass of bacteria was found: added to medium of Table 1.

The structures appear in SMILES notation. Several values for one entry are separate records, joined by “and”; a condition that tells them apart may be missing. Equal values may be shown once. Read-outs that look alike come from different tables or passages of the source.

Regarding `O[C@H](CS)[C@H](O)CS` (racemic) [dithiothreitol], the “concentration added at which a mass of bacteria and the surrounding medium exhibited yellow color” value was 0.6 g/L and 0.9 g/L; the “concentration added at which a mass of bacteria exhibited yellow color” value lay in the range of 0.16 to 1.2 g/L; the “concentration added at which a mass of bacteria was found” value lay in the range of 0.075 to 1.5 g/L. The compound further gave a Yellow coloration degree (dithiothreitol added 0.075 g/L) of 1. For the setting “dithiothreitol added 0.16 g/L”, this compound returned a Yellow coloration degree of 2. The same compound showed a Yellow coloration degree (dithiothreitol added 0.32 g/L) of 2. Where the note is “dithiothreitol added 0.60 g/L”, this compound showed a Yellow coloration degree of 3. This compound also gave a Yellow coloration degree (dithiothreitol added 0.90 g/L) of 3. Under “dithiothreitol added 1.2 g/L”, this compound displayed a Yellow coloration degree of 2. This compound also had a Yellow coloration degree (dithiothreitol added 1.5 g/L) of 1. Where the note is “dithiothreitol added 1.8 g/L”, the Yellow coloration degree is listed as 0.
For the compound `O=C1O[C@H]([C@@H](O)CO)C(O)=C1O` [ascorbic acid], the “concentration added at which a mass of bacteria and the surrounding medium exhibited yellow color” value lay in the range of 0.32 to 1.8 g/L; the “concentration added at which a mass of bacteria exhibited yellow color” value was in the range of 0.16 to 2.7 g/L; the “concentration added at which a mass of bacteria was found” value lay in the range of 0.075 to 3.6 g/L. In addition, for the setting “ascorbic acid added 0.075 g/L”, the Yellow coloration degree is on record as 1. Further, the Yellow coloration degree (ascorbic acid added 0.16 g/L) turned out to be 2. Further, the Yellow coloration degree (ascorbic acid added 0.32 g/L) came to 3. For the same compound, the Yellow coloration degree (ascorbic acid added 0.64 g/L) is listed as 3. Further, the Yellow coloration degree (ascorbic acid added 1.8 g/L) stood at 3. Moreover, the Yellow coloration degree (ascorbic acid added 2.7 g/L) is listed as 2. This compound also gave a Yellow coloration degree (ascorbic acid added 3.6 g/L) of 1. Where the note is “ascorbic acid added 4.5 g/L”, this compound displayed a Yellow coloration degree of 0.
